Measured values taken from US20220008391A1, “NOVEL COMPOUNDS FOR CONTROLLING ARTHROPODS” (Bayer Animal Health GmbH, priority 2018, published 2022).
Converted amounts (≈) assume the structure as drawn.

Test: Measurement of solubility in buffer at pH 6.5
Format: physicochemical
Conditions: aqueous buffer, kinetic from dmso stock; PBS buffer pH 6.5, shaken 24h at rt, LC-MSMS; read-out: Solubility of example compounds at pH 6.5
Description: Measurement of Solubility in Buffer at pH 6.5 2-4 mg of the test compound are dissolved in DMSO to reach a concentration of 50 g/L (solution A). To 10 μl of this solution 960 μl PBS buffer pH 6.5 are added (final concentration: 515 μg/1); the mixture is shaken for 24h at rt in a 96 well plate. An aliquot is centrifuged at 42000 rpm für 30 min. The supernatant is diluted with acetonitrile/water (8:2) 1:10 and 1:1000 resp. This diluted samples are analyzed by LC-MSMS. Calibration: 10 μl of solution A are diluted with 823 μl DMSO (final concentration: 600 μg/ml), which is further diluted with acetonitrile/water 8:2 by a factor of 100 (provides solution B). The calibration curve is obtained from solution B by further diluting with acetonitrile/water 8:2 with target concentrations of 1.2-12-60-600 ng/ml and injecting these four solutions for MS measurement. PBS-Puffer: 6.18 g sodium chloride and 3.96 g sodium dihydrogen phosphate are dissolved in 1 L aqua dist., the pH is adjusted to 6.5 with 1N sodium hydroxide. The following conditions were used for quantification: Autosampler without auto inject ahead setting, column: Waters OASIS HLB, 2,1×20 mm, 25μ, column temperature: 30° C., flow rate: 2.5 mL/min, injected volume: 2 μl, Splitter (before MS) 1:20.

With `Cn1nc(C(F)(F)C(F)(F)F)c(C(F)(F)F)c1-n1cc(-c2ccc(Cl)c(C(=O)N(COC(=O)OCC(C)(C)C(=O)O)C3(C#N)CC3)c2)cn1` [Example 21, 3-[({[{2-Chloro-5-[2′-methyl-5′-(pentafluoroethyl)-4′-(trifluoromethyl)-2′H-[1,3′-bipyrazol]-4-yl]benzoyl}(1-cyanocyclopropyl)amino]methoxy}carbonyl)oxy]-2,2-dimethylpropanoic Acid] as the molecule, how does the solubility at 24 h read?
The solubility at 24 h was 136 µg/mL (≈ 187 µM).

Which solubility at 24 h does the source give for `Cn1nc(C(F)(F)C(F)(F)F)c(C(F)(F)F)c1-n1cc(-c2ccc(Cl)c(C(=O)N(COC(=O)O[C@H]3CC[C@H](OC(=O)/C=C/C(=O)O)CC3)C3(C#N)CC3)c2)cn1` [Example 22, Trans (2E)-4-({-4-[({[{2-chloro-5-[2′-methyl-5′-(pentafluoroethyl)-4′-(trifluoromethyl)-2′H-[1,3′-bipyrazol]-4-yl]benzoyl}(1-cyanocyclopropyl)amino]methoxy}carbonyl)oxy]cyclohexyl}oxy)-4-oxobut-2-enoic Acid] here?
Its solubility at 24 h is 17 µg/mL (≈ 20.7 µM).

Which solubility at 24 h does the source give for `Cn1nc(C(F)(F)C(F)(F)F)c(C(F)(F)F)c1-n1cc(-c2ccc(Cl)c(C(=O)N(COC(=O)O[C@H]3CC[C@@H](C(=O)O)CC3)C3(C#N)CC3)c2)cn1` [Example 23, Cis-4-[({[{2-Chloro-5-[2′-methyl-5′-(pentafluoroethyl)-4′-(trifluoromethyl)-2′H-[1,3′-bipyrazol]-4-yl]benzoyl}(1-cyanocyclopropyl)amino]methoxy}carbonyl)oxy]cyclohexane-1-carboxylic Acid] here?
The solubility at 24 h was 50 µg/mL (≈ 66.4 µM).

Which solubility at 24 h does the source give for `Cn1nc(C(F)(F)C(F)(F)F)c(C(F)(F)F)c1-n1cc(-c2ccc(Cl)c(C(=O)N(COC(=O)O[C@H]3CC[C@H](C(=O)O)CC3)C3(C#N)CC3)c2)cn1` [Example 24, Trans-4-[({[{2-Chloro-5-[2′-methyl-5′-(pentafluoroethyl)-4′-(trifluoromethyl)-2′H-[1,3′-bipyrazol]-4-yl]benzoyl}(1-cyanocyclopropyl)amino]methoxy}carbonyl)oxy]cyclohexane-1-carboxylic Acid] here?
The solubility at 24 h was 57 µg/mL (≈ 75.7 µM).

For `Cn1nc(C(F)(F)C(F)(F)F)c(C(F)(F)F)c1-n1cc(-c2ccc(Cl)c(C(=O)N(COC(=O)OCCCOC(=O)/C=C/C(=O)O)C3(C#N)CC3)c2)cn1` [Example 25, (12E)-1-{2-Chloro-5-[2′-methyl-5′-(pentafluoroethyl)-4′-(trifluoromethyl)-2′H-[1,3′-bipyrazol]-4-yl]phenyl}-2-(1-cyanocyclopropyl)-1,5,11-trioxo-4,6,10-trioxa-2-azatetradec-12-en-14-oic Acid], which solubility at 24 h is on record?
Its solubility at 24 h is 98 µg/mL (≈ 125 µM).

For `Cn1nc(C(F)(F)C(F)(F)F)c(C(F)(F)F)c1-n1cc(-c2ccc(Cl)c(C(=O)N(COC(=O)OCCCOC(=O)CCC(=O)O)C3(C#N)CC3)c2)cn1` [Example 26, 1-{2-Chloro-5-[2′-methyl-5′-(pentafluoroethyl)-4′-(trifluoromethyl)-2′H-[1,3′-bipyrazol]-4-yl]phenyl}-2-(1-cyanocyclopropyl)-1,5,11-trioxo-4,6,10-trioxa-2-azatetradecan-14-oic Acid], which solubility at 24 h is on record?
Its solubility at 24 h is 96 µg/mL (≈ 122 µM).

Which solubility at 24 h does the source give for `Cn1nc(C(F)(F)C(F)(F)F)c(C(F)(F)F)c1-n1cc(-c2ccc(Cl)c(C(=O)N(COC(=O)OCCOC(=O)C3(C(=O)O)CC3)C3(C#N)CC3)c2)cn1` [Example 27, 1-[10-{2-Chloro-5-[2′-methyl-5′-(pentafluoroethyl)-4′-(trifluoromethyl)-2′H-[1,3′-bipyrazol]-4-yl]phenyl}-9-(1-cyanocyclopropyl)-6,10-dioxo-2,5,7-trioxa-9-azadecanan-1-oyl]cyclopropane-1-carboxylic Acid] here?
The solubility at 24 h was 147 µg/mL (≈ 188 µM).

With `Cn1nc(C(F)(F)C(F)(F)F)c(C(F)(F)F)c1-n1cc(-c2ccc(Cl)c(C(=O)N(COC(=O)OCCOC(=O)CCCC(=O)O)C3(C#N)CC3)c2)cn1` [Example 28, 1-{2-Chloro-5-[2′-methyl-5′-(pentafluoroethyl)-4′-(trifluoromethyl)-2′H-[1,3′-bipyrazol]-4-yl]phenyl}-2-(1-cyanocyclopropyl)-1,5,10-trioxo-4,6,9-trioxa-2-azatetradecan-14-oic Acid] as the molecule, how does the solubility at 24 h read?
Its solubility at 24 h is 76 µg/mL (≈ 96.8 µM).

Which solubility at 24 h does the source give for `Cn1nc(C(F)(F)C(F)(F)F)c(C(F)(F)F)c1-n1cc(-c2ccc(Cl)c(C(=O)N(COC(=O)OCC(C)(C)COC(=O)CCC(=O)O)C3(C#N)CC3)c2)cn1` [Example 29, 1-{2-Chloro-5-[2′-methyl-5′-(pentafluoroethyl)-4′-(trifluoromethyl)-2′H-[1,3′-bipyrazol]-4-yl]phenyl}-2-(1-cyanocyclopropyl)-8,8-dimethyl-1,5,11-trioxo-4,6,10-trioxa-2-azatetradecan-14-oic Acid] here?
Its solubility at 24 h is 35 µg/mL (≈ 43 µM).

With `Cn1nc(C(F)(F)C(F)(F)F)c(C(F)(F)F)c1-n1cc(-c2ccc(Cl)c(C(=O)N(COC(=O)OCC(=O)O)C3(C#N)CC3)c2)cn1` [Example 30, [({[{2-Chloro-5-[2′-methyl-5′-(pentafluoroethyl)-4′-(trifluoromethyl)-2′H-[1,3′-bipyrazol]-4-yl]benzoyl}(1-cyanocyclopropyl)amino]methoxy}carbonyl)oxy]acetic Acid] as the molecule, how does the solubility at 24 h read?
Its solubility at 24 h is 398 µg/mL (≈ 581 µM).

For `Cn1nc(C(F)(F)C(F)(F)F)c(C(F)(F)F)c1-n1cc(-c2ccc(Cl)c(C(=O)N(COC(=O)OCC3(C(=O)O)CC3)C3(C#N)CC3)c2)cn1` [Example 31, 1-{[({[{2-Chloro-5-[2′-methyl-5′-(pentafluoroethyl)-4′-(trifluoromethyl)-2′H-[1,3′-bipyrazol]-4-yl]benzoyl}(1-cyanocyclopropyl)amino]methoxy}carbonyl)oxy]methyl}cyclopropane-1-carboxylic Acid], which solubility at 24 h is on record?
The solubility at 24 h was 168 µg/mL (≈ 232 µM).

With `Cn1nc(C(F)(F)C(F)(F)F)c(C(F)(F)F)c1-n1cc(-c2ccc(Cl)c(C(=O)N(COC(=O)O[C@H]3CC[C@@H](OC(=O)/C=C/C(=O)O)CC3)C3(C#N)CC3)c2)cn1` [Example 32, Cis-(2E)-4-({-4-[({[{2-Chloro-5-[2′-methyl-5′-(pentafluoroethyl)-4′-(trifluoromethyl)-2′H-[1,3′-bipyrazol]-4-yl]benzoyl}(1-cyanocyclopropyl)amino]methoxy}carbonyl)oxy]cyclohexyl}oxy)-4-oxobut-2-enoic Acid] as the molecule, how does the solubility at 24 h read?
The solubility at 24 h was 41 µg/mL (≈ 49.8 µM).

With `N#CC1(N(COC(=O)OCC2(C(=O)O)CC2)C(=O)c2cc(-c3cnn(-c4c(Cl)cc(C(F)(C(F)(F)F)C(F)(F)F)cc4OC(F)(F)F)c3)ccc2Cl)CC1` [Example 35, 1-{[({[(2-chloro-5-{1-[2-chloro-4-(1,1,1,2,3,3,3-heptafluoropropan-2-yl)-6-(trifluoromethoxy)phenyl]-1H-pyrazol-4-yl}benzoyl)(1-cyanocyclopropyl)amino]methoxy}carbonyl)oxy]methyl}cyclopropane-1-carboxylic Acid] as the molecule, how does the solubility at 24 h read?
Its solubility at 24 h is 8 µg/mL (≈ 9.74 µM).

With `N#CC1(N(COC(=O)OCCC(=O)O)C(=O)c2cc(-c3cnn(-c4c(Cl)cc(C(F)(C(F)(F)F)C(F)(F)F)cc4OC(F)(F)F)c3)ccc2Cl)CC1` [Example 36, 3-[({[(2-Chloro-5-{1-[2-chloro-4-(1,1,1,2,3,3,3-heptafluoropropan-2-yl)-6-(trifluoromethoxy)phenyl]-1H-pyrazol-4-yl}benzoyl)(1-cyanocyclopropyl)amino]methoxy}carbonyl)oxy]propanoic Acid] as the molecule, how does the solubility at 24 h read?
Its solubility at 24 h is 16 µg/mL (≈ 20.1 µM).

With `N#CC1(N(COC(=O)OCCCC(=O)O)C(=O)c2cc(-c3cnn(-c4c(Cl)cc(C(F)(C(F)(F)F)C(F)(F)F)cc4OC(F)(F)F)c3)ccc2Cl)CC1` [Example 37, 4-[({[(2-Chloro-5-{1-[2-chloro-4-(1,1,1,2,3,3,3-heptafluoropropan-2-yl)-6-(trifluoromethoxy)phenyl]-1H-pyrazol-4-yl}benzoyl)(1-cyanocyclopropyl)amino]methoxy}carbonyl)oxy]butanoic Acid] as the molecule, how does the solubility at 24 h read?
The solubility at 24 h was 7 µg/mL (≈ 8.65 µM).

For `Cn1nc(C(F)(F)C(F)(F)F)c(C(F)(F)F)c1-n1cc(-c2ccc(Cl)c(C(=O)N(COC(=O)O[C@@H]3CCC[C@H]3OC(=O)CCC(=O)O)C3(C#N)CC3)c2)cn1` [Example 38, 4-({(1R,2R)-2-[({[{2-Chloro-5-[2′-methyl-5′-(pentafluoroethyl)-4′-(trifluoromethyl)-2′H-[1,3′-bipyrazol]-4-yl]benzoyl}(1-cyanocyclopropyl)amino]methoxy}carbonyl)oxy]cyclopentyl}oxy)-4-oxobutanoic Acid], which solubility at 24 h is on record?
Its solubility at 24 h is 37 µg/mL (≈ 45.6 µM).

With `Cn1nc(C(F)(F)C(F)(F)F)c(C(F)(F)F)c1-n1cc(-c2ccc(Cl)c(C(=O)N(COC(=O)OCC(C)(C)COC(=O)/C=C/C(=O)O)C3(C#N)CC3)c2)cn1` [Example 39, (12E)-1-{2-chloro-5-[2′-methyl-5′-(pentafluoroethyl)-4′-(trifluoromethyl)-2′H-[1,3′-bipyrazol]-4-yl]phenyl}-2-(1-cyanocyclopropyl)-8,8-dimethyl-1,5,11-trioxo-4,6,10-trioxa-2-azatetradec-12-en-14-oic Acid] as the molecule, how does the solubility at 24 h read?
The solubility at 24 h was 43 µg/mL (≈ 53 µM).

With `Cn1nc(C(F)(F)C(F)(F)F)c(C(F)(F)F)c1-n1cc(-c2ccc(Cl)c(C(=O)N(COC(=O)OCCOC(=O)CC(C)(C)C(=O)O)C3(C#N)CC3)c2)cn1` [Example 40, 1-{2-Chloro-5-[2′-methyl-5′-(pentafluoroethyl)-4′-(trifluoromethyl)-2′H-[1,3′-bipyrazol]-4-yl]phenyl}-2-(1-cyanocyclopropyl)-12,12-dimethyl-1,5,10-trioxo-4,6,9-trioxa-2-azatridecan-13-oic Acid] as the molecule, how does the solubility at 24 h read?
The solubility at 24 h was 43 µg/mL (≈ 53.8 µM).
